The results in this text go back to patent US6696093B2, “Aldehyde donors for stabilizing peroxides” (Lonza Inc., priority 2000, dated 2004).

Data set [1] is described as follows: H2O2 stabilization in papermaking process water (Example 1). As to conditions: for H2O2 residual: 45° C. How it is done: Process waters from a papermaking facility which uses recycled fibers were collected during a bleaching stage and allowed to stand for 2 hours to achieve total depletion of the hydrogen peroxide in the process waters.
Into five separate Pyrex beakers were placed 400 ml of the process water. One was retained as a control. 150 and 300 ppm of an aqueous solution containing 40% by weight of 1,3-bis(hydroxymethyl)-5,5-dimethylhydantoin (DMDMH) (Dantogard®) were added to two beakers for a total concentration of 60 ppm and 120 ppm of DMDMH, respectively. On an equivalent aldehyde basis, this corresponds to 0.65 mEq/l and 1.30 mEq/l, respectively. 150 and 300 ppm of an aqueous solution containing […] of glutaraldehyde were added to the remaining two beakers for a total concentration of 83 ppm and 166 ppm of glutaraldehyde, respectively. On an equivalent aldehyde basis, this corresponds to 1.66 mEq/l and 3.32 mEq/l, respectively. The samples were placed in a controlled water bath at 45° C. and stirred with a magnetic stirrer set on slow agitation.
To all the test samples, a sufficient volume of a 1% (by weight) hydrogen peroxide (H2O2) aqueous solution was added to achieve a concentration of 20-25 ppm of hydrogen peroxide in the samples. At regular time intervals, over a 45 minute period, aliquots were removed and analyzed for peroxide residual (i.e. the concentration of hydrogen peroxide) using a thiosulfate titration kit (HACH Test Kit, Model HYP-1, available from Hach Company of Loveland, Colo.). The results, shown in Table 1, correlate to the amount of peroxide present at the specific time interval, expressed as ppm of hydrogen peroxide.

Data set [2] addresses T1, catalase (Aspergillus niger, UniProt P55303).
T1 construct: purchased Sigma Aldrich C-3515; host or cells: A. niger derived
Kind of data set: Catalase promoted hydrogen peroxide decomposition in phosphate buffer pH 7.0 (Example 6). The data set is classed as biochemical, A. niger. Particulars: 526 ppm product. The protocol:
Hydrogen peroxide solutions containing 470 ppm active peroxide in sterile Butterfield's phosphate buffer (pH=7.0) were treated with 1.2 units of catalase (A. niger available from Sigma Aldrich of St. Louis, Mo. (C-3515)) alone or with 263 or 526 ppm of Dantogard® 2000, available from Lonza Inc. of Fair Lawn, N.J., or 526 ppm of an aqueous 49% glutaraldehyde solution. Dantogard® 2000 is a 65% aqueous mixture of DMDMH, MMDMH and DMH having a minimal free formaldehyde concentration. The peroxide decomposition rate was monitored during the decrease in peroxide concentration from 390 to 350 ppm by ultraviolet absorbance at 240 nm. The temperature was 23° C.

T1 sequence (P55303 whole entry): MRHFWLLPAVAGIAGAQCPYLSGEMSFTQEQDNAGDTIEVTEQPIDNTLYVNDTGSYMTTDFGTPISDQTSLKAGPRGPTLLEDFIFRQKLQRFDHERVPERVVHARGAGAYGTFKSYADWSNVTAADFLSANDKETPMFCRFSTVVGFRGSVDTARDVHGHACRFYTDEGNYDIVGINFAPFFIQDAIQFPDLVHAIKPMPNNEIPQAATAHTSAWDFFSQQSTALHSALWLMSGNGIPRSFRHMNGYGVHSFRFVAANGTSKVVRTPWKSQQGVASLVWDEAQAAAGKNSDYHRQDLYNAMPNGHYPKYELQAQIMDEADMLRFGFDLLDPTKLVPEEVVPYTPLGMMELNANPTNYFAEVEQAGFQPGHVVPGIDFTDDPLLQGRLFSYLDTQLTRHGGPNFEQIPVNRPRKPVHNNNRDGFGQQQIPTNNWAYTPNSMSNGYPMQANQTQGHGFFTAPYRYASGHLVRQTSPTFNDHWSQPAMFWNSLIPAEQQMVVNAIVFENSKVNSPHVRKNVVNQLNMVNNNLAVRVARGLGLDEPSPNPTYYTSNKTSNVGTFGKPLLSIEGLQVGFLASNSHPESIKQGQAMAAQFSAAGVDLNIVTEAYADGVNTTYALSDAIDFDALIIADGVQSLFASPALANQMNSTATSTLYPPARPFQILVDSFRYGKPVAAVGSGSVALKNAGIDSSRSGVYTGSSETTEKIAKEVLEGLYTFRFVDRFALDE

Turning to `CC1(C)C(=O)N(CO)C(=O)N1CO` [DMDMH, 1,3-bis(hydroxymethyl)-5,5-dimethylhydantoin], the H2O2 residual turned out to be 25 ppm H2O2 in data set [1] (60 ppm DMDMH, 0 min); 24 ppm H2O2 in data set [1] (60 ppm DMDMH, 10 min); 23 ppm H2O2 in data set [1] (60 ppm DMDMH, 15 min); 22 ppm H2O2 in data set [1] (60 ppm DMDMH, 20 min); 18 ppm H2O2 in data set [1] (60 ppm DMDMH, 30 min); 16 ppm H2O2 in data set [1] (60 ppm DMDMH, 40 min). Further, the H2O2 residual in data set [1] (60 ppm DMDMH, 45 min) amounted to 15 ppm H2O2; in data set [1] (120 ppm DMDMH, 0 min) it was 26 ppm H2O2; in data set [1] (120 ppm DMDMH, 10 min), 24 ppm H2O2; in data set [1] (120 ppm DMDMH, 15 min), 23 ppm H2O2; in data set [1] (120 ppm DMDMH, 20 min) it was 20 ppm H2O2; in data set [1] (120 ppm DMDMH, 30 min), 18 ppm H2O2. Also, the H2O2 residual in data set [1] (120 ppm DMDMH, 40 min) worked out at 17 ppm H2O2; in data set [1] (120 ppm DMDMH, 45 min), 16 ppm H2O2. The “peroxide stabilization compared to glutaraldehyde” value in data set [1] (Table 1 comparison, ppm product basis) is recorded as “superior peroxide stabilization compared to glutaraldehyde”.

With `O=CCCCC=O` [Glutaraldehyde, glutaraldehyde], the H2O2 residual is given as 25 ppm H2O2 in data set [1] (83 ppm glutaraldehyde, 0 min); 24 ppm H2O2 in data set [1] (83 ppm glutaraldehyde, 10 min); 22 ppm H2O2 in data set [1] (83 ppm glutaraldehyde, 15 min); 20 ppm H2O2 in data set [1] (83 ppm glutaraldehyde, 20 min); 16 ppm H2O2 in data set [1] (83 ppm glutaraldehyde, 30 min); 14 ppm H2O2 in data set [1] (83 ppm glutaraldehyde, 40 min). In addition, the H2O2 residual in data set [1] (83 ppm glutaraldehyde, 45 min) worked out at 12 ppm H2O2; in data set [1] (166 ppm glutaraldehyde, 0 min) it was 26 ppm H2O2; in data set [1] (166 ppm glutaraldehyde, 10 min) it was 24 ppm H2O2; in data set [1] (166 ppm glutaraldehyde, 15 min), 21 ppm H2O2; in data set [1] (166 ppm glutaraldehyde, 20 min) it was 19 ppm H2O2; in data set [1] (166 ppm glutaraldehyde, 30 min), 17 ppm H2O2. Further, the H2O2 residual in data set [1] (166 ppm glutaraldehyde, 40 min) was 15 ppm H2O2; in data set [1] (166 ppm glutaraldehyde, 45 min), 13 ppm H2O2. Besides, the “Peroxide Decomposition Rate” value in data set [2] (1.2 units catalase, pH 7.0, 23° C., peroxide 390 to 350 ppm) came out at 0.230 ppm/sec. Besides, the “Normalized Decomposition Rate” value in data set [2] (control = 1.00) amounted to 1.0.
